≈ marks a conversion by molar mass, not a printed value.
tested on: Proteus miravilis 2425; assay: minimal inhibitory concentration, agar dilution method (in vitro); type: cell-based
Description: (§1) When determined according to the agar dilution method, the penicillins [I] afford the minimal inhibitory concentrations as shown in the following Table 1: […]

Row | SMILES | MIC [µg/mL]
1 | CC1(C)SC2C(NC(=O)C(NC(=O)c3cnc4ccncc4c3O)c3ccccc3)C(=O)N2C1C(=O)O (centres unmarked) [Example 43] | 12.5 (≈ 24 µM)
2 | COc1nccc2ncc(C(=O)NC(C(=O)NC3C(=O)N4C3SC(C)(C)C4C(=O)O)c3ccccc3)c(O)c12 (centres unmarked) [Example 44] | 6.25 (≈ 11.3 µM)
3 | CN(C)c1nccc2ncc(C(=O)NC(C(=O)NC3C(=O)N4C3SC(C)(C)C4C(=O)O)c3ccccc3)c(O)c12 (centres unmarked) [Example 45] | 6.25 (≈ 11.1 µM)
4 | CN(C)c1ncc2c(O)c(C(=O)NC(C(=O)NC3C(=O)N4C3SC(C)(C)C4C(=O)O)c3ccccc3)cnc2n1 (centres unmarked) [Example 46] | 3.13 (≈ 5.53 µM)
5 | CC1(C)SC2C(NC(=O)C(NC(=O)c3cnc4ncncc4c3O)c3ccccc3)C(=O)N2C1C(=O)O (centres unmarked) [Example 47] | 6.25 (≈ 12 µM)
6 | Cc1nc(C)c2c(O)c(C(=O)NC(C(=O)NC3C(=O)N4C3SC(C)(C)C4C(=O)O)c3ccccc3)cnc2n1 (centres unmarked) [Example 48] | 6.25 (≈ 11.4 µM)
7 | CC1(C)SC2C(NC(=O)C(NC(=O)c3cnc4nc(N)ncc4c3O)c3ccccc3)C(=O)N2C1C(=O)O (centres unmarked) [Example 49] | 6.25 (≈ 11.6 µM)
8 | CC1(C)SC2C(NC(=O)C(NC(=O)c3cnc4cncnc4c3O)c3ccccc3)C(=O)N2C1C(=O)O (centres unmarked) [Example 50] | 1.56 (≈ 2.99 µM)
9 | CN(C)c1ncc2ncc(C(=O)NC(C(=O)NC3C(=O)N4C3SC(C)(C)C4C(=O)O)c3ccccc3)c(O)c2n1 (centres unmarked) [Example 51] | 1.56 (≈ 2.76 µM)
10 | COc1nc(O)nc2c(O)c(C(=O)NC(C(=O)NC3C(=O)N4C3SC(C)(C)C4C(=O)O)c3ccccc3)cnc12 (centres unmarked) [Example 52] | 3.13 (≈ 5.51 µM)

tested on: Staphylococcus aureus 209P; assay: as above; type: cell-based
Description: as §1

Row | SMILES | MIC [µg/mL]
11 | CC1(C)SC2C(NC(=O)C(NC(=O)c3cnc4ccncc4c3O)c3ccccc3)C(=O)N2C1C(=O)O (centres unmarked) [Example 43] | 0.78 (≈ 1.5 µM)
12 | COc1nccc2ncc(C(=O)NC(C(=O)NC3C(=O)N4C3SC(C)(C)C4C(=O)O)c3ccccc3)c(O)c12 (centres unmarked) [Example 44] | 0.78 (≈ 1.41 µM)
13 | CN(C)c1nccc2ncc(C(=O)NC(C(=O)NC3C(=O)N4C3SC(C)(C)C4C(=O)O)c3ccccc3)c(O)c12 (centres unmarked) [Example 45] | 0.78 (≈ 1.38 µM)
14 | CN(C)c1ncc2c(O)c(C(=O)NC(C(=O)NC3C(=O)N4C3SC(C)(C)C4C(=O)O)c3ccccc3)cnc2n1 (centres unmarked) [Example 46] | 1.56 (≈ 2.76 µM)
15 | CC1(C)SC2C(NC(=O)C(NC(=O)c3cnc4ncncc4c3O)c3ccccc3)C(=O)N2C1C(=O)O (centres unmarked) [Example 47] | 0.78 (≈ 1.49 µM)
16 | Cc1nc(C)c2c(O)c(C(=O)NC(C(=O)NC3C(=O)N4C3SC(C)(C)C4C(=O)O)c3ccccc3)cnc2n1 (centres unmarked) [Example 48] | 0.78 (≈ 1.42 µM)
17 | CC1(C)SC2C(NC(=O)C(NC(=O)c3cnc4nc(N)ncc4c3O)c3ccccc3)C(=O)N2C1C(=O)O (centres unmarked) [Example 49] | 0.78 (≈ 1.45 µM)
18 | CC1(C)SC2C(NC(=O)C(NC(=O)c3cnc4cncnc4c3O)c3ccccc3)C(=O)N2C1C(=O)O (centres unmarked) [Example 50] | 0.78 (≈ 1.49 µM)
19 | CN(C)c1ncc2ncc(C(=O)NC(C(=O)NC3C(=O)N4C3SC(C)(C)C4C(=O)O)c3ccccc3)c(O)c2n1 (centres unmarked) [Example 51] | 0.78 (≈ 1.38 µM)
20 | COc1nc(O)nc2c(O)c(C(=O)NC(C(=O)NC3C(=O)N4C3SC(C)(C)C4C(=O)O)c3ccccc3)cnc12 (centres unmarked) [Example 52] | 1.56 (≈ 2.74 µM)

tested on: Escherichia coli NIHJ; assay: as above; type: cell-based
Description: as §1

Row | SMILES | MIC [µg/mL]
21 | CC1(C)SC2C(NC(=O)C(NC(=O)c3cnc4ccncc4c3O)c3ccccc3)C(=O)N2C1C(=O)O (centres unmarked) [Example 43] | 12.5 (≈ 24 µM)
22 | COc1nccc2ncc(C(=O)NC(C(=O)NC3C(=O)N4C3SC(C)(C)C4C(=O)O)c3ccccc3)c(O)c12 (centres unmarked) [Example 44] | 12.5 (≈ 22.7 µM)
23 | CN(C)c1nccc2ncc(C(=O)NC(C(=O)NC3C(=O)N4C3SC(C)(C)C4C(=O)O)c3ccccc3)c(O)c12 (centres unmarked) [Example 45] | 6.25 (≈ 11.1 µM)
24 | CN(C)c1ncc2c(O)c(C(=O)NC(C(=O)NC3C(=O)N4C3SC(C)(C)C4C(=O)O)c3ccccc3)cnc2n1 (centres unmarked) [Example 46] | 3.13 (≈ 5.53 µM)
25 | CC1(C)SC2C(NC(=O)C(NC(=O)c3cnc4ncncc4c3O)c3ccccc3)C(=O)N2C1C(=O)O (centres unmarked) [Example 47] | 3.13 (≈ 5.99 µM)
26 | Cc1nc(C)c2c(O)c(C(=O)NC(C(=O)NC3C(=O)N4C3SC(C)(C)C4C(=O)O)c3ccccc3)cnc2n1 (centres unmarked) [Example 48] | 12.5 (≈ 22.7 µM)
27 | CC1(C)SC2C(NC(=O)C(NC(=O)c3cnc4nc(N)ncc4c3O)c3ccccc3)C(=O)N2C1C(=O)O (centres unmarked) [Example 49] | 6.25 (≈ 11.6 µM)
28 | CC1(C)SC2C(NC(=O)C(NC(=O)c3cnc4cncnc4c3O)c3ccccc3)C(=O)N2C1C(=O)O (centres unmarked) [Example 50] | 1.56 (≈ 2.99 µM)
29 | CN(C)c1ncc2ncc(C(=O)NC(C(=O)NC3C(=O)N4C3SC(C)(C)C4C(=O)O)c3ccccc3)c(O)c2n1 (centres unmarked) [Example 51] | 0.78 (≈ 1.38 µM)
30 | COc1nc(O)nc2c(O)c(C(=O)NC(C(=O)NC3C(=O)N4C3SC(C)(C)C4C(=O)O)c3ccccc3)cnc12 (centres unmarked) [Example 52] | 3.13 (≈ 5.51 µM)

tested on: Pseudomonas aeruginosa 104; assay: as above; type: cell-based
Description: as §1

Row | SMILES | MIC [µg/mL]
31 | CC1(C)SC2C(NC(=O)C(NC(=O)c3cnc4ccncc4c3O)c3ccccc3)C(=O)N2C1C(=O)O (centres unmarked) [Example 43] | 6.25 (≈ 12 µM)
32 | COc1nccc2ncc(C(=O)NC(C(=O)NC3C(=O)N4C3SC(C)(C)C4C(=O)O)c3ccccc3)c(O)c12 (centres unmarked) [Example 44] | 12.5 (≈ 22.7 µM)
33 | CN(C)c1nccc2ncc(C(=O)NC(C(=O)NC3C(=O)N4C3SC(C)(C)C4C(=O)O)c3ccccc3)c(O)c12 (centres unmarked) [Example 45] | 12.5 (≈ 22.1 µM)
34 | CN(C)c1ncc2c(O)c(C(=O)NC(C(=O)NC3C(=O)N4C3SC(C)(C)C4C(=O)O)c3ccccc3)cnc2n1 (centres unmarked) [Example 46] | 3.13 (≈ 5.53 µM)
35 | CC1(C)SC2C(NC(=O)C(NC(=O)c3cnc4ncncc4c3O)c3ccccc3)C(=O)N2C1C(=O)O (centres unmarked) [Example 47] | 3.13 (≈ 5.99 µM)
36 | Cc1nc(C)c2c(O)c(C(=O)NC(C(=O)NC3C(=O)N4C3SC(C)(C)C4C(=O)O)c3ccccc3)cnc2n1 (centres unmarked) [Example 48] | 12.5 (≈ 22.7 µM)
37 | CC1(C)SC2C(NC(=O)C(NC(=O)c3cnc4nc(N)ncc4c3O)c3ccccc3)C(=O)N2C1C(=O)O (centres unmarked) [Example 49] | 12.5 (≈ 23.3 µM)
38 | CC1(C)SC2C(NC(=O)C(NC(=O)c3cnc4cncnc4c3O)c3ccccc3)C(=O)N2C1C(=O)O (centres unmarked) [Example 50] | 3.13 (≈ 5.99 µM)
39 | CN(C)c1ncc2ncc(C(=O)NC(C(=O)NC3C(=O)N4C3SC(C)(C)C4C(=O)O)c3ccccc3)c(O)c2n1 (centres unmarked) [Example 51] | 3.13 (≈ 5.53 µM)
40 | COc1nc(O)nc2c(O)c(C(=O)NC(C(=O)NC3C(=O)N4C3SC(C)(C)C4C(=O)O)c3ccccc3)cnc12 (centres unmarked) [Example 52] | 6.25 (≈ 11 µM)

tested on: Klebsiella pneumoniae 602; assay: as above; type: cell-based
Description: as §1

Row | SMILES | MIC [µg/mL]
41 | CC1(C)SC2C(NC(=O)C(NC(=O)c3cnc4ccncc4c3O)c3ccccc3)C(=O)N2C1C(=O)O (centres unmarked) [Example 43] | 6.25 (≈ 12 µM)
42 | COc1nccc2ncc(C(=O)NC(C(=O)NC3C(=O)N4C3SC(C)(C)C4C(=O)O)c3ccccc3)c(O)c12 (centres unmarked) [Example 44] | 12.5 (≈ 22.7 µM)
43 | CN(C)c1nccc2ncc(C(=O)NC(C(=O)NC3C(=O)N4C3SC(C)(C)C4C(=O)O)c3ccccc3)c(O)c12 (centres unmarked) [Example 45] | 3.13 (≈ 5.54 µM)
44 | CN(C)c1ncc2c(O)c(C(=O)NC(C(=O)NC3C(=O)N4C3SC(C)(C)C4C(=O)O)c3ccccc3)cnc2n1 (centres unmarked) [Example 46] | 1.56 (≈ 2.76 µM)
45 | CC1(C)SC2C(NC(=O)C(NC(=O)c3cnc4ncncc4c3O)c3ccccc3)C(=O)N2C1C(=O)O (centres unmarked) [Example 47] | 3.13 (≈ 5.99 µM)
46 | Cc1nc(C)c2c(O)c(C(=O)NC(C(=O)NC3C(=O)N4C3SC(C)(C)C4C(=O)O)c3ccccc3)cnc2n1 (centres unmarked) [Example 48] | 3.13 (≈ 5.68 µM)
47 | CC1(C)SC2C(NC(=O)C(NC(=O)c3cnc4nc(N)ncc4c3O)c3ccccc3)C(=O)N2C1C(=O)O (centres unmarked) [Example 49] | 6.25 (≈ 11.6 µM)
48 | CC1(C)SC2C(NC(=O)C(NC(=O)c3cnc4cncnc4c3O)c3ccccc3)C(=O)N2C1C(=O)O (centres unmarked) [Example 50] | 0.78 (≈ 1.49 µM)
49 | CN(C)c1ncc2ncc(C(=O)NC(C(=O)NC3C(=O)N4C3SC(C)(C)C4C(=O)O)c3ccccc3)c(O)c2n1 (centres unmarked) [Example 51] | 0.78 (≈ 1.38 µM)
50 | COc1nc(O)nc2c(O)c(C(=O)NC(C(=O)NC3C(=O)N4C3SC(C)(C)C4C(=O)O)c3ccccc3)cnc12 (centres unmarked) [Example 52] | 3.13 (≈ 5.51 µM)
